Measurements reported in US9078440B2, “6-(2-aminophenyl)picolinates and their use as herbicides” (BAYER INTELLECTUAL PROPERTY GMBH, priority 2010, dated 2015).

Legend:
Format in all cases: in vivo
[1] = tested on: Viola tricolor; assay: Post-emergence herbicidal effect, greenhouse pot test; conditions: 1.28 kg or less active substance per hectare, scored visually after about 3 weeks
Method: (§1) Post-emergence herbicidal effect and crop plant compatibility
(§2) Seeds of monocotyledonous and dicotyledonous weed and crop plants are placed in sandy loam in wood-fibre pots, covered with soil and cultivated in a greenhouse under good growth conditions. 2 to 3 weeks after sowing, the test plants are treated at the one-leaf stage. The inventive compounds, formulated in the form of wettable powders (WP) or as emulsion concentrates (EC), are then sprayed onto the green parts of the plants as an aqueous suspension or emulsion at a water application rate of 600 to 800 I/ha (converted) with addition of 0.2% by weight of wetting agent. After the test plants have been left to stand in the greenhouse under optimal growth conditions for about 3 weeks, the action of the formulations is scored visually in comparison to untreated controls (herbicidal action in percent (%): 100% action=the plants have died, 0% action=like control plants).

[2] = tested on: Stellaria media; assay: as above; conditions: 1.28 kg or less active substance per hectare, scored visually after about 3 weeks
Method: as §1, §2

[3] = tested on: Polygonum (Fallopia) convolvulus; assay: as above; conditions: 1.28 kg or less active substance per hectare, scored visually after about 3 weeks
Method: as §1, §2

[4] = tested on: Amaranthus retroflexus; assay: as above; conditions: 1.28 kg or less active substance per hectare, scored visually after about 3 weeks
Method: as §1, §2

[5] = tested on: Veronica persica; assay: as above; conditions: 1.28 kg or less active substance per hectare, scored visually after about 3 weeks
Method: as §1, §2

[6] = tested on: Matricaria inodora; assay: as above; conditions: 1.28 kg or less active substance per hectare, scored visually after about 3 weeks
Method: as §1, §2

[7] = tested on: Pharbitis (Ipomoea) purpurea; assay: as above; conditions: 1.28 kg or less active substance per hectare, scored visually after about 3 weeks
Method: as §1, §2

[8] = tested on: Viola tricolor; assay: Pre-emergence herbicidal effect, greenhouse pot test; conditions: 1.28 kg of active substance per hectare, assessed visually after 3 weeks
Excerpt: (§3) Pre-emergence Herbicidal Effect and Crop Plant Compatibility
(§4) Seeds of monocotyledonous and dicotyledonous weed plants and crop plants are placed in wood-fibre pots in sandy loam and covered with soil. The inventive compounds, formulated in the form of wettable powders (WP) or as emulsion concentrates (EC), are then applied to the surface of the covering soil as an aqueous suspension or emulsion at a water application rate of 600 to 800 I/ha (converted) with addition of 0.2% wetting agent. After the treatment, the pots are placed in a greenhouse and kept under good growth conditions for the test plants. The damage to the test plants is assessed visually after a test period of 3 weeks by comparison with untreated controls (herbicidal activity in percent (%): 100% action=the plants have died, 0% action=like control plants).

[9] = tested on: Polygonum (Fallopia) convolvulus; assay: as above; conditions: 1.28 kg of active substance per hectare, assessed visually after 3 weeks
Excerpt: as §3, §4

[10] = tested on: Amaranthus retroflexus; assay: as above; conditions: 1.28 kg of active substance per hectare, assessed visually after 3 weeks
Excerpt: as §3, §4

Measured: herbicidal action

COC(=O)c1nc(-c2ccc(Cl)cc2N)cc(N)c1Cl [compound 58, methyl 4-amino-6-(2-amino-4-chlorophenyl)-3-chloropyridine-2-carboxylate]
at least 90%: all assays above
